According to patent US9708336B2, “Metallo-beta-lactamase inhibitors” (priority 2014, dated 2017):
Like-named read-outs stand apart in the source and are kept apart here.

What was measured:
[1] = biological target: VIM-1 (Pseudomonas aeruginosa (strain ATCC 15692 / DSM 22644 / CIP 104116 / JCM 14847 / LMG 12228 / 1C / PRS 101 / PAO1), UniProt A0A0F7KYQ8); assay: Enzyme activity: determination of IC50, fluorescence assay with CCF2-FA substrate (VIM-1); format: biochemical
[2] = biological target: IMP-1 (Serratia marcescens, UniProt P52699); assay: biochemical; format: biochemical; details: read-out: IMP-1 IC50
Chain of IMP-1 (P52699 whole entry, looked up): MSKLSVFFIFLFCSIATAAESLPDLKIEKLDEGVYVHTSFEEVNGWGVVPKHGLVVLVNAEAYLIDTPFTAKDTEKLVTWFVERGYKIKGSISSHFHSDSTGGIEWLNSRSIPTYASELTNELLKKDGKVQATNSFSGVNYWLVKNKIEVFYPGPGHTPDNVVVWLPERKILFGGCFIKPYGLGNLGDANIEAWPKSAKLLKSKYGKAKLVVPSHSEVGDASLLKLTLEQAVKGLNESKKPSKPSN

[3] = biological target: NDM-1 (Klebsiella pneumoniae, UniProt C7C422); assay: biochemical; format: biochemical; details: read-out: NDM-1 IC50
Chain of NDM-1 (C7C422 whole entry, looked up, species assumed): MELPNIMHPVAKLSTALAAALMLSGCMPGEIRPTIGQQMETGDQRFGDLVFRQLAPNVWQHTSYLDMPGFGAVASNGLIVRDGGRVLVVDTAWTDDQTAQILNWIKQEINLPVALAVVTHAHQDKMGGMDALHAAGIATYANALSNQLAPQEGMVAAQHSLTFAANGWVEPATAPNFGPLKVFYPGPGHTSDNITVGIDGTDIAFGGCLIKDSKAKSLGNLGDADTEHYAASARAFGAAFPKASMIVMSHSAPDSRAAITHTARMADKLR

[4] = test system: Serratia marcescens expressing IMP-1 (CL5741); assay: Antibiotic potentiation activity: synergistic concentration (MITC95) with imipenem, OD600 growth; format: cell-based; details: for Serratia marcescens expressing IMP-1 (CL5741) MITC95: concentration giving 95% inhibition of bacterial growth
Procedure, shortened: (§1)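 Clinical MBL-producing strains (E. coli NDM-1, S. marcescens IMP-1, K. pneumoniae VIM-1) from overnight plates were diluted 1:100 into 1.1×CAMHB. Compound was tested with imipenem at 4 μg/ml (optionally 1 μg/ml) or without it. After 22–24 h at 35 °C, growth was read as OD600.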

[5] = test system: Escherichia coli expressing NDM-1 (CLB30016); assay: as above; format: cell-based; details: for Escherichia coli expressing NDM-1 (CLB 30016) MITC95: concentration giving 95% inhibition of bacterial growth
Procedure, shortened: as §1

[6] = test system: Klebsiella pneumoniae expressing VIM-1 (IHMA599644); assay: as above; format: cell-based; details: for Klebsiella pneumoniae expressing VIM-1 (IHMA 599644) MITC95: concentration giving 95% inhibition of bacterial growth
Procedure, shortened: as §1

[7] = VIM-1 enzyme, CCF2-FA substrate, read-out: VIM-1 IC50
[8] = IMP-1 enzyme, CCF2-FA substrate
[9] = NDM-1 enzyme, CCF2-FA substrate
[10] = Serratia marcescens CL5741 (IMP-1), 95% growth inhibition
[11] = (CLB30016, NDM-1), 95% growth inhibition
[12] = Klebsiella pneumoniae IHMA599644 (VIM-1), 95% growth inhibition
[13] = fluorescence assay with CCF2-FA substrate, read-out: VIM-1 IC50
[14] = fluorescence assay with CCF2-FA substrate
[15] = VIM-1 enzyme, CCF2-FA fluorescence assay, read-out: VIM-1 IC50
[16] = IMP-1 enzyme, CCF2-FA fluorescence assay
[17] = NDM-1 enzyme, CCF2-FA fluorescence assay
[18] = Serratia marcescens expressing IMP-1 (CL5741), 95% growth inhibition
[19] = Escherichia coli expressing NDM-1 (CLB30016), 95% growth inhibition
[20] = Klebsiella pneumoniae expressing VIM-1 (IHMA599644), 95% growth inhibition
[21] = VIM-1 IC50, VIM-1 enzyme, CCF2-FA substrate
[22] = CL5741 (IMP-1), 95% inhibition of bacterial growth
[23] = CLB30016 (NDM-1), 95% inhibition of bacterial growth
[24] = IHMA599644 (VIM-1), 95% inhibition of bacterial growth

## NC(=O)C1CCN(c2ccc(C(F)(F)F)c(S(N)(=O)=O)c2-c2nnn[nH]2)CC1 [Example 656, 1-[3-sulfamoyl-2-(1H-tetrazol-5-yl)-4-(trifluoromethyl)phenyl]piperidine-4-carboxamide]
[1]; [7]
  IC50: 0.8 nM
[2]; [8]
  IC50: 2.84 nM
[3]; [9]
  IC50: 1.98 nM
[4]; [10]
  Serratia marcescens MITC95: 0.125 µM
[5]; [11]
  Escherichia coli MITC95: 0.5781 µM
[6]; [12]
  Klebsiella pneumoniae MITC95: 3.125 µM

## N=C(N)NC1CCC(CCc2ccc(C(F)(F)F)c(S(N)(=O)=O)c2-c2nn[nH]n2)CC1 (stereo not drawn) [Example 524, 3-(2-(4-Guanidinocyclohexyl)ethyl)-2-(2H-tetrazol-5-yl)-6-(trifluoromethyl)benzenesulfonamide]
[1]; [7]
  IC50: 1.05 nM
[2]; [8]
  IC50: 5.13 nM
[3]; [9]
  IC50: 24.8 nM
[4]; [10]
  Serratia marcescens MITC95: 6.25 µM
[5]; [11]
  Escherichia coli MITC95: 12.5 µM
[6]; [12]
  Klebsiella pneumoniae MITC95: 12.5 µM

## Cc1ccc(Oc2cccc(S(N)(=O)=O)c2-c2nn[nH]n2)cc1 [Example 179, 2-(2H-tetrazol-5-yl)-3-(p-tolyloxy)benzenesulfonamide]
[1]; [13]
  IC50: 1440 nM
[2]; [14]
  IC50: 406 nM
[3]; [14]
  IC50: 10.8 nM
[4]
  Serratia marcescens expressing IMP-1 (CL5741) MITC95: 37.5 µM
[5]
  Escherichia coli expressing NDM-1 (CLB 30016) MITC95: 3.125 µM
[6]
  Klebsiella pneumoniae expressing VIM-1 (IHMA 599644) MITC95: >200 µM

## NC(=O)C1CCCN(c2ccc(C(F)(F)F)c(S(N)(=O)=O)c2-c2nnn[nH]2)C1 (stereo not drawn) [Example 662, 1-[3-sulfamoyl-2-(1H-tetrazol-5-yl)-4-(trifluoromethyl)phenyl]piperidine-3-carboxamide]
[1]; [7]
  IC50: 4.58 nM
[2]; [8]
  IC50: 37.1 nM
[3]; [9]
  IC50: 11.6 nM
[4]; [10]
  Serratia marcescens MITC95: 1.953 µM
[5]; [11]
  Escherichia coli MITC95: 6.25 µM
[6]; [12]
  Klebsiella pneumoniae MITC95: 12.5 µM

## NS(=O)(=O)c1cccc(CCC2CCCCC2)c1-c1nnn[nH]1 [Example 164, 3-(2-cyclohexylethyl)-2-(1H-tetrazol-5-yl)benzenesulfonamide]
[1]; [13]
  IC50: 50.6 nM
[2]; [14]
  IC50: 5.5 nM
[3]; [14]
  IC50: 2.93 nM
[4]
  Serratia marcescens expressing IMP-1 (CL5741) MITC95: 0.3906 µM
[5]
  Escherichia coli expressing NDM-1 (CLB 30016) MITC95: 1.563 µM
[6]
  Klebsiella pneumoniae expressing VIM-1 (IHMA 599644) MITC95: 200 µM

## NS(=O)(=O)c1c(Br)ccc(-c2ccnc3ccccc23)c1-c1nn[nH]n1 [Example 266, 6-bromo-3-(quinolin-4-yl)-2-(2H-tetrazol-5-yl)benzenesulfonamide]
[1]; [15]
  IC50: 0.689 nM
[2]; [16]
  IC50: 12.6 nM
[3]; [17]
  IC50: 2.08 nM
[4]; [18]
  Serratia marcescens MITC95: 0.7813 µM
[5]; [19]
  Escherichia coli MITC95: 3.125 µM
[6]; [20]
  Klebsiella pneumoniae MITC95: 9.375 µM

## NC[C@H]1CC[C@H](Cc2ccc(-c3ccc(N)nc3)c(-c3nnn[nH]3)c2S(N)(=O)=O)CC1 [Example 579, 6-(((1r,4r)-4-(aminomethyl)cyclohexyl)methyl)-3-(6-aminopyridin-3-yl)-2-(1H-tetrazol-5-yl)benzenesulfonamide]
[1]; [21]
  IC50: 3.12 nM
[2]; [8]
  IC50: 17.8 nM
[3]; [9]
  IC50: 1.64 nM
[4]; [10]
  Serratia marcescens MITC95: 3.125 µM
[5]; [11]
  Escherichia coli MITC95: 0.7813 µM
[6]; [12]
  Klebsiella pneumoniae MITC95: 12.5 µM

## NCC[C@H]1CC[C@H](c2ccc(C(F)(F)F)c(S(N)(=O)=O)c2-c2nnn[nH]2)CC1 [Example 499, 3-(trans 4-(2-aminoethyl)cyclohexyl)-2-(1H-tetrazol-5-yl)-6-(trifluoromethyl)benzenesulfonamide]
[1]; [21]
  IC50: 0.328 nM
[2]; [8]
  IC50: 7.04 nM
[3]; [9]
  IC50: 1.93 nM
[4]; [10]
  Serratia marcescens MITC95: 0.1953 µM
[5]; [11]
  Escherichia coli MITC95: 0.7813 µM
[6]; [12]
  Klebsiella pneumoniae MITC95: 1.172 µM

## NS(=O)(=O)c1cccc(-c2cc3cnccc3s2)c1-c1nnn[nH]1 [Example 411, 2-(1H-tetrazol-5-yl)-3-thieno[3,2-c]pyridin-2-yl-benzenesulfonamide]
[1]; [15]
  IC50: 27.8 nM
[2]; [16]
  IC50: 102 nM
[3]; [17]
  IC50: 4.84 nM
[4]; [18]
  Serratia marcescens MITC95: 3.125 µM
[5]; [19]
  Escherichia coli MITC95: 0.7813 µM
[6]; [20]
  Klebsiella pneumoniae MITC95: 25 µM

## NCCC1CCC(N2CC(c3ccc(-c4ccc(C(F)(F)F)c(S(N)(=O)=O)c4-c4nnn[nH]4)cc3)C2)CC1 (stereo not drawn) [Example 814, 4′-{1-[4-(2-aminoethyl)cyclohexyl]azetidin-3-yl}-2-(1H-tetrazol-5-yl)-4-(trifluoromethyl)biphenyl-3-sulfonamide]
[1]; [13]
  IC50: 22.5 nM
[2]; [14]
  IC50: 12.5 nM
[3]; [14]
  IC50: 8.08 nM
[4]; [22]
  Serratia marcescens MITC95: 6.25 µM
[5]; [23]
  Escherichia coli MITC95: 6.25 µM
[6]; [24]
  Klebsiella pneumoniae MITC95: 100 µM

## NS(=O)(=O)c1c(CCCCCCO)ccc(CCCCCCO)c1-c1nn[nH]n1 [Example 543, 3,6-Bis(6-hydroxyhexyl)-2-(2H-tetrazol-5-yl)benzenesulfonamide]
[1]; [7]
  IC50: 3.21 nM
[2]; [8]
  IC50: 1.16 nM
[3]; [9]
  IC50: 2.62 nM
[4]; [10]
  Serratia marcescens MITC95: 12.5 µM
[5]; [11]
  Escherichia coli MITC95: 50 µM
[6]; [12]
  Klebsiella pneumoniae MITC95: >200 µM

## NS(=O)(=O)c1cccc(-c2ccc(CNCCn3nccn3)cc2)c1-c1nnn[nH]1 [Example 383, 2-(1H-tetrazol-5-yl)-4′-({[2-(2H-1,2,3-triazol-2-yl)ethyl]amino}methyl)biphenyl-3-sulfonamide]
[1]; [15]
  IC50: 269 nM
[2]; [16]
  IC50: 51.6 nM
[3]; [17]
  IC50: 4.66 nM
[4]; [18]
  Serratia marcescens MITC95: 1.563 µM
[5]; [19]
  Escherichia coli MITC95: 1.563 µM
[6]; [20]
  Klebsiella pneumoniae MITC95: 200 µM

## Cn1c(-c2ccc(-c3ccc(C(F)(F)F)c(S(N)(=O)=O)c3-c3nnn[nH]3)cc2)cnc1N.O=C(O)C(F)(F)F [Example 560, 3-[4-(2-amino-3-methyl-imidazol-4-yl)phenyl]-2-(1H-tetrazol-5-yl)-6-(trifluoromethyl)benzenesulfonamide]
[1]; [7]
  IC50: 0.212 nM
[2]; [8]
  IC50: 0.898 nM
[3]; [9]
  IC50: 0.727 nM
[4]; [10]
  Serratia marcescens MITC95: 3.125 µM
[5]; [11]
  Escherichia coli MITC95: 6.25 µM
[6]; [12]
  Klebsiella pneumoniae MITC95: 6.25 µM

## NS(=O)(=O)c1c(C(F)(F)F)ccc(N2CCCC(CCO)C2)c1-c1nnn[nH]1 (stereo not drawn) [Example 660, 3-[3-(2-hydroxyethyl)piperidin-1-yl]-2-(1H-tetrazol-5-yl)-6-(trifluoromethyl)benzenesulfonamide]
[1]; [7]
  IC50: 1.31 nM
[2]; [8]
  IC50: 10.4 nM
[3]; [9]
  IC50: 4.7 nM
[4]; [10]
  Serratia marcescens MITC95: 0.3906 µM
[5]; [11]
  Escherichia coli MITC95: 2.344 µM
[6]; [12]
  Klebsiella pneumoniae MITC95: 6.25 µM

## NS(=O)(=O)c1cccc(-c2ccc(CN3CC(F)(F)C3)cc2)c1-c1nnn[nH]1 [Example 372, 4′-[(3,3-difluoroazetidin-1-yl)methyl]-2-(1H-tetrazol-5-yl)biphenyl-3-sulfonamide]
[1]; [15]
  IC50: 470 nM
[2]; [16]
  IC50: 15.7 nM
[3]; [17]
  IC50: 4.91 nM
[4]; [18]
  Serratia marcescens MITC95: 1.563 µM
[5]; [19]
  Escherichia coli MITC95: 7.813 µM
[6]; [20]
  Klebsiella pneumoniae MITC95: >200 µM

## CN(CC(=O)O)Cc1ccc(-c2cccc(S(N)(=O)=O)c2-c2nnn[nH]2)cc1 [Example 364, N-methyl-N-{[3′-sulfamoyl-2′-(1H-tetrazol-5-yl)biphenyl-4-yl]methyl}glycine]
[1]; [15]
  IC50: 212 nM
[2]; [16]
  IC50: 100 nM
[3]; [17]
  IC50: 9.17 nM
[4]; [18]
  Serratia marcescens MITC95: 3.125 µM
[5]; [19]
  Escherichia coli MITC95: 1.563 µM
[6]; [20]
  Klebsiella pneumoniae MITC95: 25 µM

## CNC1CC(N2CCC(c3ccc(-c4ccc(C(F)(F)F)c(S(N)(=O)=O)c4-c4nnn[nH]4)cc3)CC2)C1 (stereo not drawn) [Example 799, 4′-{1-[3-(methylamino)cyclobutyl]piperidin-4-yl}-2-(1H-tetrazol-5-yl)-4-(trifluoromethyl)biphenyl-3-sulfonamide]
[1]; [13]
  IC50: 15 nM
[2]; [14]
  IC50: 1.05 nM
[3]; [14]
  IC50: 3.89 nM
[4]; [22]
  Serratia marcescens MITC95: 3.125 µM
[5]; [23]
  Escherichia coli MITC95: 3.125 µM
[6]; [24]
  Klebsiella pneumoniae MITC95: >200 µM
